Source: paper PMC9964390, “Design, Synthesis and Phenotypic Profiling of Simplified Gedatolisib Analogues” (Pharmaceuticals, 2023)
Read-outs that look alike come from different tables or passages of the source.

Tests used:
K562 = test: MTT cell viability assay; assay type: cell-based; conditions: Homo sapiens, K562, 72 h MTT; for Emax: read-out: Emax (maximum effect at maximum concentration used)
Description: (§1) For the evaluation of cellular cytotoxicity in cancer cell lines, the compounds were tested at concentrations ranging from 0.00003 μM to 150 μM. Immortalized cancer cells were selected: PC-3 (PTEN-mutated prostate adenocarcinoma), MCF-7 (PI3KCA-mutated breast carcinoma), K562 (P53-mutated chronic myeloid leukemia), CCRF-CEM (acute lymphoblastic leukemia with mutation in PTEN) and MOLT-4 (acute lymphoblastic leukemia with mutation in PI3KR1/PTEN). Peripheral blood mononuclear cells (PBMCs) were used to determine the cytotoxic selectivity index (SI). All immortalized cells were cultured in RPMI 1640 medium with 10% (v/v) FBS, streptomycin + penicillin, at 37 °C in a humidified incubator containing 5% CO2.
(§2) Cell viability was assessed by the MTT assay. The lines selected for this study were plated according to their respective densities, which ranged from 3 × 10^4 to 4 × 10^4 cells per well. Subsequently, they were treated with test compounds at different concentrations (0.00003 μM to 150 μM), gedatolisib and GSK-1059615.
(§3) After incubation, the plates are centrifuged at 440× g for 10 min. Then, 110 μL of the supernatant was withdrawn and each well received 10μL of the MTT solution. The plate was again incubated in an oven at 37 °C and 5% CO2 for 3 to 4 h. At the end of the incubation time, 100 μL of SDS-HCL detergent was added to solubilize the formazan crystals. The plate was shaken on an automatic overnight shaker and then read at a wavelength of 595 nm on the Molecular Devices Spectramax M5 plate reader.

MCF7 [1] = test: MTT cell viability assay; assay type: cell-based; conditions: Homo sapiens, MCF7, 72 h MTT; for CC50: 95% confidence interval in brackets; for Emax: read-out: Emax (maximum effect at maximum concentration used)
Description: as §1, §2, §3

PC-3 = test: MTT cell viability assay; assay type: cell-based; conditions: Homo sapiens, PC-3, 72 h MTT; for CC50: 95% confidence interval in brackets; for Emax: read-out: Emax (maximum effect at maximum concentration used)
Description: as §1, §2, §3

CCRF-CEM [2] = test: MTT cell viability assay; assay type: cell-based, human; conditions: for CC50 / Emax: Homo sapiens; for CC50: 95% confidence interval in brackets; for Emax: read-out: Emax (maximum effect at maximum concentration used)
Description: as §1, §2, §3

MOLT-4 [3] = test: MTT cell viability assay; assay type: cell-based, human; conditions: for CC50 / Emax: Homo sapiens; for CC50: 95% confidence interval in brackets; for Emax: read-out: Emax (maximum effect at maximum concentration used); for loss of cytotoxic potency at 48 h versus 72 h (MTT): MOLT-4
Description: as §1, §2, §3

[4] = PBMC viability assay (72 h MTT); assay type: cell-based, human; set-up: Emax at 72 h: dose or concentration left out as unconfirmed; conditions: human; for viability at 72 h, 0.3 µM: 0.3 µM (printed 0.3M); for viability at 72 h, 3 µM: 3 µM (printed 3M)
Description: Donor blood was collected and EDTA (ethylenediamine tetraacetic acid) was added to the sterile laminar flow in a 1:20 ratio. In a 15 mL falcon tube, 4.5 mL of Ficoll gradient was added, and then 9 mL of blood was added over the gradient in a 1:2 ratio. The tubes were centrifuged for 40 min at a speed of 750× g with an acceleration of 2 and a brake of 0. The ring of mononuclear cells formed was collected and added to a new tube.
Tubes with PBMCs were centrifuged in an incomplete RPMI medium for 10 min at 580× g with an acceleration of 8 and a brake of 9. The supernatant was discarded, and the cells were resuspended in 1 mL of RPMI medium supplemented with 20% […]. PBMCs were added to 96-well plates at a concentration of 1 × 10^5 cells per well. […]
After incubation, each well received 20 µL of MTT (5 mg/mL), followed by incubation for 4 h in the CO2 oven and centrifugation for 12 min at 1200× g. The supernatant from each well was taken, and 100 µL of isopropyl alcohol was added to solubilize the formazan crystals. The absorbance of the plates was measured at 570 nm in the Flex Station equipment.

CCRF-CEM cell line = test: Muse Cell Cycle Kit; assay type: cell-based, human; conditions: 48 h
Description: The Guava Muse Luminex® Cell Cycle Kit (catalog n^o MCH100106, Luminex) contains the DNA marker propidium iodide (PI) and RNAse A to avoid nonspecific labelling.
After 48 h of incubation in an incubator at 37 °C with 5% CO2, 1 mL of the MOLT-4 cell solution and 500 µL of the CCRF-CEM cell solution, contained in the wells, were transferred to Eppendorf tubes and centrifuged at 300× g for 5 min. The volumes used ensured that the cell density remained within the recommended range (1 × 10^6 to 4 × 10^6 cells/mL) at the end of the 48 h incubation period.
The supernatant was discarded, and the pellet formed was resuspended in 1 mL of saline PBS, homogenised, and centrifuged at 300× g for 5 min. The formed pellet was resuspended in residual PBS by homogenization. To fix cellular events, 1 mL of ice-cold 70% alcohol was added dropwise into the tubes and vortexed at medium speed. The samples were incubated, before staining, for at least 3 h at −20 °C.
At the end of the incubation time at −20 °C, the samples were centrifuged at 300× g for 5 min, and then the supernatant was discarded and resuspended in 250 µL of PBS. The samples were again centrifuged at 300× g for 5 min and the supernatant discarded, which constituted the washing step. The pellet formed was resuspended in 200 µL of the Guava Muse Luminex® Cell Cycle, and the tubes were incubated for 30 min at room temperature, away from light.
After incubation, the samples were read in Guava Muse Luminex®, and the data with the histograms generated, which contain information on the percentage of the different phases of the cell cycle, were analysed in the statistical program Prism6. This methodology was performed in duplicate of three independent experiments.

CCRF-CEM [5] = test: Muse Count & Viability Kit (flow cytometry); conditions: for CC50 / Emax: Homo sapiens
Description: (§4) Cell viability, cell death pattern, cell cycle and detection of PI3K activation were evaluated, and each analysis was performed using specific protocols of the Guava Muse Cell Analyzer.
(§5) In total, 20 µL of the cell solution was added to 380 µL of the reagent in 1 mL Eppendorf tubes and incubated for 5 min at room temperature in the dark. Samples from three independent experiments carried out in duplicate were read on the cytometer, followed by statistical analysis of the histograms on Prism6 to determine the CC50.

MOLT-4 [6] = test: Muse Count & Viability Kit (flow cytometry); conditions: for CC50 / Emax: Homo sapiens; for loss of potency in Muse Count & Viability Kit 72 h versus 72 h MTT: MOLT-4
Description: as §4, §5

MCF7 [7] = test: Muse Count & Viability Kit (flow cytometry); set-up: Emax: dose or concentration left out as unconfirmed
[8] = PBMC, read-out: % cell viability
[9] = peripheral blood mononuclear cells (PBMCs), PBMC, read-out: % cell viability

SMILES	Emax (K562) [%]	CC50 (MCF7 [1]) [µM]	Emax (MCF7 [1]) [%]	CC50 (PC-3) [µM]	Emax (PC-3) [%]	loss of cytotoxic potency at 48 h versus 72 h (MTT) (CCRF-CEM [2])	CC50 (CCRF-CEM [2]; 48 h MTT) [µM]	Emax (CCRF-CEM [2]; 48 h MTT) [%]	CC50 (CCRF-CEM [2]; 72 h MTT) [µM]	Emax (CCRF-CEM [2]; 72 h MTT) [%]	CC50 (MOLT-4 [3]; MOLT-4, 48 h MTT) [µM]	Emax (MOLT-4 [3]; MOLT-4, 48 h MTT) [%]	CC50 (MOLT-4 [3]; MOLT-4, 72 h MTT) [µM]	Emax (MOLT-4 [3]; MOLT-4, 72 h MTT) [%]	loss of cytotoxic potency at 48 h versus 72 h (MTT) (MOLT-4 [3])	loss of potency in Muse Count & Viability Kit 72 h versus 72 h MTT (CCRF-CEM [5]) [fold]	CC50 (CCRF-CEM [5]; 48 h) [µM]	Emax (CCRF-CEM [5]; 48 h) [%]	CC50 (CCRF-CEM [5]; 72 h) [µM]	Emax (CCRF-CEM [5]; 72 h) [%]	also measured
c1ccc(N2CCN(c3nc(N4CCCNCC4)nc(N4CCOCC4)n3)CC2)cc1 [5f, 4-(4-(1,4-Diazepan-1-yl)-6-(4-phenylpiperazin-1-yl)-1,3,5-triazin-2-yl)morpholine]	84	37	91	62.1	84	less than 2 fold	11.1	69	6.25	93	36.5	80	9.76	93	less than 4 fold	≤ 10	49	95	53.1	96	CC50 (K562; 95% confidence interval in brackets): 23.4 µM; Emax at 72 h [4]: 26%; viability at 72 h, 0.03 µM ([4]; PBMC, 0.03 µM (printed 0.03M), read-out: % cell viability): 92%; viability at 72 h, 0.3 µM [4, 8]: 88%; viability at 72 h, 3 µM [4, 8]: 91%; viability at 72 h, 30 µM ([4]; PBMC, 30 µM (printed 30M), read-out: % cell viability): 75%; viability at 72 h, 100 µM ([4]; PBMC, 100 µM (printed 100M), read-out: % cell viability): 73%; action on the cell cycle (CCRF-CEM cell line; its CC50 value (50 µM)): cell cycle arrest in G0/G1; CC50 (MOLT-4 [6]; MOLT-4, 48 h): 51 µM; Emax (MOLT-4 [6]; MOLT-4, 48 h): 90%; CC50 (MOLT-4 [6]; MOLT-4, 72 h): 60.8 µM; Emax (MOLT-4 [6]; MOLT-4, 72 h): 92%; loss of potency in Muse Count & Viability Kit 72 h versus 72 h MTT (MOLT-4 [6]): ≤ 10 fold; cytotoxic activity (MCF7 [7]; MCF-7, Muse Count & Viability Kit, 72 h): inactive
CN(C)C1CCN(C(=O)c2ccc(NC(=O)Nc3ccc(-c4nc(N5CCOCC5)nc(N5CCOCC5)n4)cc3)cc2)CC1 [Gedatolisib, gedatolisib]	64	0.07	87	0.54	80	~10 fold	0.14	94	0.03	90	0.15	92	0.02	93	~10 fold	100	5.88	94	6.15	94	CC50 (K562; K562, 72 h): > 24 µM; CC50 (K562; K562, 72 h, 95% confidence interval in brackets): 24.1 µM; viability at 72 h, 0.0003 µM ([4]; peripheral blood mononuclear cells (PBMCs), PBMC, 0.0003 µM (printed 0.0003M), read-out: % cell viability): 89%; viability at 72 h, 0.003 µM ([4]; peripheral blood mononuclear cells (PBMCs), PBMC, 0.003 µM (printed 0.003M), read-out: % cell viability): 85%; viability at 72 h, 0.3 µM [4, 9]: 80%; viability at 72 h, 3 µM [4, 9]: 85%; viability at 72 h, 50 µM ([4]; peripheral blood mononuclear cells (PBMCs), PBMC, 50 µM (printed 50M), read-out: % cell viability): 67%; action on the cell cycle (CCRF-CEM cell line; both concentrations tested (0.6 µM and 6 µM)): cell cycle arrest in the G0/G1 phase; CC50 (MOLT-4 [6]; MOLT-4, 48 h): 1.65 µM; Emax (MOLT-4 [6]; MOLT-4, 48 h): 82%; CC50 (MOLT-4 [6]; MOLT-4, 72 h): 1.15 µM; Emax (MOLT-4 [6]; MOLT-4, 72 h): 86%; loss of potency in Muse Count & Viability Kit 72 h versus 72 h MTT (MOLT-4 [6]): 100 fold; Emax (MCF7 [7]; Homo sapiens, MCF7, 72 h, read-out: maximum effect (Emax)): 54%
